Laboratory results: PMC7026418, “The kinase polypharmacology landscape of clinical PARP inhibitors” (Scientific Reports, 2020)
Where two headings read alike, the source gives them in different places. Values belong to the compound of their own block, whether it stands above or below them.

Assays:
Assay in all cases: biochemical
Set-up in all cases: DiscoveRx KINOMEscan active site-directed competition binding; percent of control kinase bound to immobilised ligand
[1] = biological target: T1, ABL1(F317L)-phosphorylated (Homo sapiens, UniProt P00519, F317L)
T1 construct: phosphorylated

[2] = biological target: T2, EPHA3 (Homo sapiens, UniProt P29320)
T2 sequence (P29320 1-983): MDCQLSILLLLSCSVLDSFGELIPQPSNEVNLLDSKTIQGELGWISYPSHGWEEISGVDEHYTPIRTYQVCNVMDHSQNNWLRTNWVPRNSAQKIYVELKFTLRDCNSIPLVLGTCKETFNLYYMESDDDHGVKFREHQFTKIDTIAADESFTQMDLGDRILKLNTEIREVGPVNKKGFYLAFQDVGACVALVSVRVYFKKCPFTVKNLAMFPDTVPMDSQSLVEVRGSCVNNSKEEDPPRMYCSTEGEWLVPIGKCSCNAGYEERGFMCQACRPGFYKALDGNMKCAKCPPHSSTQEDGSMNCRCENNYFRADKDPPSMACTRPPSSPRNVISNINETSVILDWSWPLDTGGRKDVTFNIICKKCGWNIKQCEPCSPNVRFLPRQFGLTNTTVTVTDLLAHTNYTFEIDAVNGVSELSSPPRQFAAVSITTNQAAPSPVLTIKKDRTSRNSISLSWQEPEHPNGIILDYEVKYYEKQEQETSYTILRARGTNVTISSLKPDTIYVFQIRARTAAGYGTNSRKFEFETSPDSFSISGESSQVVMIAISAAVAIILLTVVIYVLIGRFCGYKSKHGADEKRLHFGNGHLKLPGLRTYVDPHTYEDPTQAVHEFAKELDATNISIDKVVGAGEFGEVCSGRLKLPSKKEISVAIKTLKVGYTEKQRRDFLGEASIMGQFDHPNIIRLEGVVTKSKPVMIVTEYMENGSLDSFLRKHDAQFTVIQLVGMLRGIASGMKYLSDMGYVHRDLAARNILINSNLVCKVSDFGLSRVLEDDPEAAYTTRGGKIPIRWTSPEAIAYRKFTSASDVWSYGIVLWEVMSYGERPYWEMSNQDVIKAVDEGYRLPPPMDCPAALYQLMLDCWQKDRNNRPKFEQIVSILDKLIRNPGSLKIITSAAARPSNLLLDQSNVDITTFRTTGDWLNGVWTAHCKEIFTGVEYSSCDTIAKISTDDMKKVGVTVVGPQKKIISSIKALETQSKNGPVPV

[3] = biological target: T3, TAOK1 (Homo sapiens, UniProt Q7L7X3)
T3 sequence (Q7L7X3 1-1001): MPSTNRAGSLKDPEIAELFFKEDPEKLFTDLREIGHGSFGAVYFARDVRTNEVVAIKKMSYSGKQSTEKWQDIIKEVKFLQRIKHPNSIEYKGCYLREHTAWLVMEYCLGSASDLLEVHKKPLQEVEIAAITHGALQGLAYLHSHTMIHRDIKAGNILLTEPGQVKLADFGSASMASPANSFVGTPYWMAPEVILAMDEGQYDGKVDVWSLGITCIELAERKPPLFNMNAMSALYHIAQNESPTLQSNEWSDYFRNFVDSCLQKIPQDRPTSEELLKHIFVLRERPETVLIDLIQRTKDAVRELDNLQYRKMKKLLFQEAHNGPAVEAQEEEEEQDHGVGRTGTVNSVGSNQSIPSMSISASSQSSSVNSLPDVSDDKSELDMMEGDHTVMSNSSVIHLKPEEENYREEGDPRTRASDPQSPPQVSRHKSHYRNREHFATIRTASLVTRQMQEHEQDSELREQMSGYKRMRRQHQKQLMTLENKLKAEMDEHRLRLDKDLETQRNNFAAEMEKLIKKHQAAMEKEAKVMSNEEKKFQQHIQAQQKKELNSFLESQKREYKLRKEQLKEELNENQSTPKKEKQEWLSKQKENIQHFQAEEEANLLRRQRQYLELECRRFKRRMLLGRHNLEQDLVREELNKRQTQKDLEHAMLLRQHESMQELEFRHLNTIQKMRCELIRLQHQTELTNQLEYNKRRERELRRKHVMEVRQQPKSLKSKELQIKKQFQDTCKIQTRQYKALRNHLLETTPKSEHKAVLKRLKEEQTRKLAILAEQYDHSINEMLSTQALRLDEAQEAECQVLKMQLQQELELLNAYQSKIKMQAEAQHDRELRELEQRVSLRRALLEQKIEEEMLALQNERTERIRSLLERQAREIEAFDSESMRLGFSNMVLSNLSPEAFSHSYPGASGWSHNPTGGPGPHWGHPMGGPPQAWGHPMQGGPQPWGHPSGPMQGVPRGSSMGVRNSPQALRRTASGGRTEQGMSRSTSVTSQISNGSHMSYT

[4] = biological target: T4, RPS6KA5(Kin.Dom.1-N-terminal) (Homo sapiens, UniProt O75582)
T4 construct: Kin.Dom.1-N-terminal

[5] = biological target: T5, PHKG2 (Homo sapiens, UniProt P15735)
T5 sequence (P15735 1-406): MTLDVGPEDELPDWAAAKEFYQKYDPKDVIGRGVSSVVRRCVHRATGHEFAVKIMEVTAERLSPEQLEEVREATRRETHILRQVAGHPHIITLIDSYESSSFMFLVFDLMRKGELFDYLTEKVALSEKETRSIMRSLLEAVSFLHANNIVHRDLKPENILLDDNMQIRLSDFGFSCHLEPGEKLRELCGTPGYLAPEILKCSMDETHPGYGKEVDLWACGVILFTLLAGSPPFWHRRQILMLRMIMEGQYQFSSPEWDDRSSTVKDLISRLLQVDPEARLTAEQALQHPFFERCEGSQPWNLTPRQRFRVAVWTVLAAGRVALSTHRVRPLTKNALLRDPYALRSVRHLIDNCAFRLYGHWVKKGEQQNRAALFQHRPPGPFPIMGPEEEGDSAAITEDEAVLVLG

[6] = biological target: WNK4 (Homo sapiens, UniProt Q96J92)
[7] = read-out: Niraparib (MK-4827) / %Ctrl @ 10000nM
[8] = read-out: Rucaparib / %Ctrl @ 10000nM, binding competition, % of control
[9] = read-out: Olaparib / %Ctrl @ 10000nM
[10] = read-out: Talazoparib (BMN 673) / %Ctrl @ 10000nM

Sequence of WNK4 (Q96J92 whole entry): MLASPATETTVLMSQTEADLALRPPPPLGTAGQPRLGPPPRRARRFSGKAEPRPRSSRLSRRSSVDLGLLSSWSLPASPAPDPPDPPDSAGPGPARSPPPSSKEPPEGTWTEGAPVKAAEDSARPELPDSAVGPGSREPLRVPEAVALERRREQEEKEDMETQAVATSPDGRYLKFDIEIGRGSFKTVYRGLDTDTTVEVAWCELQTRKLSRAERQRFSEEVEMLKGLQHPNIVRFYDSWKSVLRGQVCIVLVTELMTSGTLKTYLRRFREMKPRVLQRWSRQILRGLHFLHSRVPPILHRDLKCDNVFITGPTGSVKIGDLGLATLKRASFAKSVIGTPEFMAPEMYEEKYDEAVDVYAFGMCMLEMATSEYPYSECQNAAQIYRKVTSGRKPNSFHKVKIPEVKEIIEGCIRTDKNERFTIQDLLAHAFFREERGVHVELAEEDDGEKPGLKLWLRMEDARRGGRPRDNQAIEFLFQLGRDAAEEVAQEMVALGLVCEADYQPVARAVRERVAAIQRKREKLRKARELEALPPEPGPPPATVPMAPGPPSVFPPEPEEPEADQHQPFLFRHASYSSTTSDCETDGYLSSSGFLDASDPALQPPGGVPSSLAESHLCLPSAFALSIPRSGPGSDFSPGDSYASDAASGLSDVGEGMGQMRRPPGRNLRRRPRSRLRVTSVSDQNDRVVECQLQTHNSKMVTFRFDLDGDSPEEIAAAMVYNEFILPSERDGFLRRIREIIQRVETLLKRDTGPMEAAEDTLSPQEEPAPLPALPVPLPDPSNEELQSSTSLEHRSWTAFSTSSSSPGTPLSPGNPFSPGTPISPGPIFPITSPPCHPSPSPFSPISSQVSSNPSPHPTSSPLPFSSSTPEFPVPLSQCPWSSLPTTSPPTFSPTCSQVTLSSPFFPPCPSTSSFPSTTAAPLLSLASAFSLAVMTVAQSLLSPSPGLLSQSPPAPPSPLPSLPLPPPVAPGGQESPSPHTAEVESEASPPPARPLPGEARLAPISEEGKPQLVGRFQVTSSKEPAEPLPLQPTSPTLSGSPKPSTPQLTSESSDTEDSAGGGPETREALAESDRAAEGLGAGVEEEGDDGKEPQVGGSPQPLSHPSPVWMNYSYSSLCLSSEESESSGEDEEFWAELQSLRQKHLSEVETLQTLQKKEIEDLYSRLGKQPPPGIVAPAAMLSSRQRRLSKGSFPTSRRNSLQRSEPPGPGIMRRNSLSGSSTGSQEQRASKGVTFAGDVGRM
T1 sequence (P00519 whole entry F317L): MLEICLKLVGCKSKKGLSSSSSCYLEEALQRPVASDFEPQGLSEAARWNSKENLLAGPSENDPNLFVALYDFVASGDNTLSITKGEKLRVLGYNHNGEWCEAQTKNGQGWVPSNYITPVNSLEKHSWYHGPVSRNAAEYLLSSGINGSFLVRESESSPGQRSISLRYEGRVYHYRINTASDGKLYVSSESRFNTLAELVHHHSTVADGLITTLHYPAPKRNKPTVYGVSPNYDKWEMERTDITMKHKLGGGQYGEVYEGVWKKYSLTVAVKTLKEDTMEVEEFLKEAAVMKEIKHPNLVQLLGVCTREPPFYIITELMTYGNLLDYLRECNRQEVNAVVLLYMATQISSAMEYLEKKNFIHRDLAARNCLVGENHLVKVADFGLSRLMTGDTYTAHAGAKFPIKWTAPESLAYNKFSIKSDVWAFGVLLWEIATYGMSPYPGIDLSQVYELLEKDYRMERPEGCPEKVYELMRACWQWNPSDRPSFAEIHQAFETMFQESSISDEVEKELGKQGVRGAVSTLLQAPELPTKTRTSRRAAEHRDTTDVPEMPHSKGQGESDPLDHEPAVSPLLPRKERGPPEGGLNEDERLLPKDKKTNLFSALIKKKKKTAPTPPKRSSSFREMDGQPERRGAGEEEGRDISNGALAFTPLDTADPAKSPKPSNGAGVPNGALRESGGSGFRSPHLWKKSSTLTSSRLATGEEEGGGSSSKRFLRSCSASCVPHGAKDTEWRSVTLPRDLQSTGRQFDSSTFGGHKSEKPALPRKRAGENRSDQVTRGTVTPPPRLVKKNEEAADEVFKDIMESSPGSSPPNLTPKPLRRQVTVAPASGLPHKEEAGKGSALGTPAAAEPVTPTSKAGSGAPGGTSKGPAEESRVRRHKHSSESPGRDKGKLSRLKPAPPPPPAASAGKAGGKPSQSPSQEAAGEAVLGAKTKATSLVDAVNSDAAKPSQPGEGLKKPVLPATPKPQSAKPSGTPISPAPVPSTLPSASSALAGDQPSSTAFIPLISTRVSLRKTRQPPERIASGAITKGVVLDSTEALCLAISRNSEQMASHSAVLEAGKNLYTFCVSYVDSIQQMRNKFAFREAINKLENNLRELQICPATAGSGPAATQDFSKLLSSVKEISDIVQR
T4 sequence (O75582 whole entry): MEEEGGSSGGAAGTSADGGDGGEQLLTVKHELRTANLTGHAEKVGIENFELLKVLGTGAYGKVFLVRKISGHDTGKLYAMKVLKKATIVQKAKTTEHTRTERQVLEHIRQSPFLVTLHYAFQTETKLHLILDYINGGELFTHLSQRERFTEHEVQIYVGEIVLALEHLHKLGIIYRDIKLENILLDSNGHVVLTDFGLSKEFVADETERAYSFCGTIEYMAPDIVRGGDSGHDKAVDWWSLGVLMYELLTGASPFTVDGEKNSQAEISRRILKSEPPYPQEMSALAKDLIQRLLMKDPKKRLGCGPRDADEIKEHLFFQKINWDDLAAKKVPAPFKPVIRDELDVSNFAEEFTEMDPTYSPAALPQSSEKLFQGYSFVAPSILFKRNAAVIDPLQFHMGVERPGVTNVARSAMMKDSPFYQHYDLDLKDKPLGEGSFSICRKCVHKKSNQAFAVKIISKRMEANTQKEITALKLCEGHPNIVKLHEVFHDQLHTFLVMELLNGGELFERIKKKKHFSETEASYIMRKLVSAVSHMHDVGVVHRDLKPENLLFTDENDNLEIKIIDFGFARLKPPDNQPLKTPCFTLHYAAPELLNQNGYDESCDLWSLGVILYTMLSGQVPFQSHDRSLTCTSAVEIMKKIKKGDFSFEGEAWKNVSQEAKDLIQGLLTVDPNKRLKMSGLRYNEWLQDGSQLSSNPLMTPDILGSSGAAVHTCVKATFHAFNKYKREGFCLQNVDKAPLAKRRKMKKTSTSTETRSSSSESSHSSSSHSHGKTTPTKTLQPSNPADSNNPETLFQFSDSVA

SMILES: NC(=O)c1cccc2cn(-c3ccc([C@@H]4CCCNC4)cc3)nc12 [Niraparib]
percent of control binding at 10 µM [1, 7]: 100%
percent of control binding at 10 µM [2, 7]: 81%
percent of control binding at 10 µM [3, 7]: 80%
percent of control binding at 10 µM [4, 7]: 99%
percent of control binding at 10 µM [5, 7]: 87%
percent of control binding at 10 µM [6, 7]: 100%

percent of control binding at 10 µM [1, 8]: 74%
percent of control binding at 10 µM [2, 8]: 88%
percent of control binding at 10 µM [3, 8]: 72%
percent of control binding at 10 µM [4, 8]: 100%
percent of control binding at 10 µM [5, 8]: 70%
percent of control binding at 10 µM [6, 8]: 97%
SMILES: CNCc1ccc(-c2[nH]c3cc(F)cc4c3c2CCNC4=O)cc1 [Rucaparib]

percent of control binding at 10 µM [1, 9]: 95%
percent of control binding at 10 µM [2, 9]: 100%
percent of control binding at 10 µM [3, 9]: 96%
percent of control binding at 10 µM [4, 9]: 94%
percent of control binding at 10 µM [5, 9]: 100%
percent of control binding at 10 µM [6, 9]: 100%
SMILES: O=C(c1cc(Cc2n[nH]c(=O)c3ccccc23)ccc1F)N1CCN(C(=O)C2CC2)CC1 [Olaparib]

percent of control binding at 10 µM [1, 10]: 50%
percent of control binding at 10 µM [2, 10]: 100%
percent of control binding at 10 µM [3, 10]: 100%
percent of control binding at 10 µM [4, 10]: 98%
percent of control binding at 10 µM [5, 10]: 97%
percent of control binding at 10 µM [6, 10]: 100%
SMILES: Cn1ncnc1[C@H]1c2n[nH]c(=O)c3cc(F)cc(c23)N[C@@H]1c1ccc(F)cc1 [Talazoparib]
